Data: the NIST ThermoML archive (doi:10.1021/je300799f)

Assay: xn = mol fraction of the nth substance listed
Conditions: 101 kPa, Liquid, Vibrating tube method

CCCC(=O)OC [methyl butanoate] + CCCCCCC
Conditions | mass density [kg/m3]
288.15 K, x1 = 0.0478 | 695.54
288.15 K, x1 = 0.094 | 702.79
288.15 K, x1 = 0.1411 | 710.56
288.15 K, x1 = 0.2025 | 720.91
288.15 K, x1 = 0.2476 | 728.91
288.15 K, x1 = 0.2996 | 738.37
288.15 K, x1 = 0.3531 | 748.53
288.15 K, x1 = 0.4112 | 759.9
288.15 K, x1 = 0.4484 | 767.46
288.15 K, x1 = 0.5023 | 778.63
288.15 K, x1 = 0.5526 | 789.52
288.15 K, x1 = 0.5984 | 799.7
288.15 K, x1 = 0.6471 | 810.83
288.15 K, x1 = 0.7077 | 825.2
288.15 K, x1 = 0.7463 | 834.68
288.15 K, x1 = 0.798 | 847.73
288.15 K, x1 = 0.8912 | 872.29
288.15 K, x1 = 0.9493 | 888.46
288.15 K, x1 = 1 | 903.31
298.15 K, x1 = 0.0485 | 686.88
298.15 K, x1 = 0.0876 | 693
298.15 K, x1 = 0.1389 | 701.34
298.15 K, x1 = 0.2122 | 713.65
298.15 K, x1 = 0.2586 | 721.76
298.15 K, x1 = 0.302 | 729.67
298.15 K, x1 = 0.3571 | 739.98
298.15 K, x1 = 0.4019 | 748.57
298.15 K, x1 = 0.4492 | 758.07
298.15 K, x1 = 0.5017 | 768.87
298.15 K, x1 = 0.5573 | 780.67
298.15 K, x1 = 0.5952 | 789.01
298.15 K, x1 = 0.6466 | 800.69
298.15 K, x1 = 0.7063 | 814.61
298.15 K, x1 = 0.7424 | 823.41
298.15 K, x1 = 0.7993 | 837.66
298.15 K, x1 = 0.8623 | 853.85
298.15 K, x1 = 0.9015 | 864.37
298.15 K, x1 = 0.9507 | 878.23
298.15 K, x1 = 1 | 892.31
308.15 K, x1 = 0.063 | 680.36
308.15 K, x1 = 0.117 | 688.78
308.15 K, x1 = 0.187 | 700.22
308.15 K, x1 = 0.3025 | 720.34
308.15 K, x1 = 0.417 | 741.86
308.15 K, x1 = 0.5047 | 759.48
308.15 K, x1 = 0.5651 | 772.28
308.15 K, x1 = 0.5933 | 778.47
308.15 K, x1 = 0.6532 | 791.9
308.15 K, x1 = 0.7045 | 803.77
308.15 K, x1 = 0.7487 | 814.31
308.15 K, x1 = 0.7648 | 818.37
308.15 K, x1 = 0.789 | 824.36
308.15 K, x1 = 0.8514 | 840.37
308.15 K, x1 = 0.8818 | 848.32
308.15 K, x1 = 0.9257 | 860.13
308.15 K, x1 = 0.9603 | 869.83
308.15 K, x1 = 1 | 881.19
318.15 K, x1 = 0.0768 | 673.72
318.15 K, x1 = 0.089 | 675.62
318.15 K, x1 = 0.1535 | 685.7
318.15 K, x1 = 0.2117 | 695.29
318.15 K, x1 = 0.2567 | 702.97
318.15 K, x1 = 0.305 | 711.44
318.15 K, x1 = 0.3544 | 720.36
318.15 K, x1 = 0.4042 | 729.76
318.15 K, x1 = 0.4351 | 735.72
318.15 K, x1 = 0.5011 | 748.89
318.15 K, x1 = 0.5487 | 758.83
318.15 K, x1 = 0.5962 | 768.97
318.15 K, x1 = 0.6971 | 791.66
318.15 K, x1 = 0.7469 | 803.4
318.15 K, x1 = 0.7973 | 815.75
318.15 K, x1 = 0.8454 | 827.9
318.15 K, x1 = 0.8948 | 840.81
318.15 K, x1 = 0.9513 | 856.25
318.15 K, x1 = 1 | 870.06
328.15 K, x1 = 0.044 | 659.99
328.15 K, x1 = 0.0921 | 667.12
328.15 K, x1 = 0.1388 | 674.29
328.15 K, x1 = 0.189 | 682.37
328.15 K, x1 = 0.2611 | 694.33
328.15 K, x1 = 0.3006 | 701.19
328.15 K, x1 = 0.4098 | 721.06
328.15 K, x1 = 0.4532 | 729.42
328.15 K, x1 = 0.5031 | 739.32
328.15 K, x1 = 0.5522 | 749.41
328.15 K, x1 = 0.5979 | 759.1
328.15 K, x1 = 0.6473 | 769.85
328.15 K, x1 = 0.706 | 783.28
328.15 K, x1 = 0.7456 | 792.62
328.15 K, x1 = 0.7926 | 803.93
328.15 K, x1 = 0.86 | 820.85
328.15 K, x1 = 0.9028 | 832.08
328.15 K, x1 = 0.9508 | 845.05
328.15 K, x1 = 1 | 858.8

CCCC(=O)OCC [ethyl butanoate] + CCCCCCCCC
Conditions | mass density [kg/m3]
288.15 K, x1 = 0.0379 | 725.8
288.15 K, x1 = 0.1046 | 733.19
288.15 K, x1 = 0.1502 | 738.59
288.15 K, x1 = 0.2013 | 744.84
288.15 K, x1 = 0.2499 | 751.04
288.15 K, x1 = 0.3047 | 758.28
288.15 K, x1 = 0.3427 | 763.5
288.15 K, x1 = 0.3961 | 771.2
288.15 K, x1 = 0.4355 | 776.9
288.15 K, x1 = 0.4957 | 786.1
288.15 K, x1 = 0.5455 | 794.1
288.15 K, x1 = 0.5857 | 800.8
288.15 K, x1 = 0.6498 | 811.8
288.15 K, x1 = 0.7067 | 822.09
288.15 K, x1 = 0.752 | 830.65
288.15 K, x1 = 0.8019 | 840.45
288.15 K, x1 = 0.8502 | 850.42
288.15 K, x1 = 0.904 | 861.91
288.15 K, x1 = 0.9569 | 873.91
288.15 K, x1 = 1 | 884.01
298.15 K, x1 = 0.0486 | 719.05
298.15 K, x1 = 0.0906 | 723.69
298.15 K, x1 = 0.1007 | 724.84
298.15 K, x1 = 0.1495 | 730.49
298.15 K, x1 = 0.2442 | 742.05
298.15 K, x1 = 0.2985 | 749.08
298.15 K, x1 = 0.3131 | 750.97
298.15 K, x1 = 0.3518 | 756.23
298.15 K, x1 = 0.4357 | 768.18
298.15 K, x1 = 0.5028 | 778.32
298.15 K, x1 = 0.5511 | 785.92
298.15 K, x1 = 0.5974 | 793.57
298.15 K, x1 = 0.703 | 811.93
298.15 K, x1 = 0.746 | 819.92
298.15 K, x1 = 0.7879 | 827.92
298.15 K, x1 = 0.8532 | 841.01
298.15 K, x1 = 0.9053 | 852.07
298.15 K, x1 = 1 | 873.5
308.15 K, x1 = 0.0505 | 711.25
308.15 K, x1 = 0.0818 | 714.63
308.15 K, x1 = 0.1528 | 722.65
308.15 K, x1 = 0.1872 | 726.67
308.15 K, x1 = 0.2112 | 729.53
308.15 K, x1 = 0.2818 | 738.36
308.15 K, x1 = 0.3302 | 744.66
308.15 K, x1 = 0.3685 | 749.81
308.15 K, x1 = 0.426 | 757.85
308.15 K, x1 = 0.4773 | 765.37
308.15 K, x1 = 0.5187 | 771.59
308.15 K, x1 = 0.5712 | 779.88
308.15 K, x1 = 0.642 | 791.55
308.15 K, x1 = 0.6753 | 797.37
308.15 K, x1 = 0.726 | 806.38
308.15 K, x1 = 0.7822 | 816.86
308.15 K, x1 = 0.833 | 826.88
308.15 K, x1 = 0.878 | 836.1
308.15 K, x1 = 0.9384 | 848.96
308.15 K, x1 = 1 | 862.85
318.15 K, x1 = 0.0435 | 702.45
318.15 K, x1 = 0.1009 | 708.56
318.15 K, x1 = 0.1439 | 713.46
318.15 K, x1 = 0.2001 | 719.85
318.15 K, x1 = 0.2489 | 725.77
318.15 K, x1 = 0.2861 | 730.43
318.15 K, x1 = 0.355 | 739.26
318.15 K, x1 = 0.402 | 745.62
318.15 K, x1 = 0.4556 | 753.18
318.15 K, x1 = 0.4988 | 759.53
318.15 K, x1 = 0.547 | 766.88
318.15 K, x1 = 0.6011 | 775.45
318.15 K, x1 = 0.656 | 784.53
318.15 K, x1 = 0.6951 | 791.27
318.15 K, x1 = 0.7543 | 801.83
318.15 K, x1 = 0.7999 | 810.52
318.15 K, x1 = 0.8485 | 819.97
318.15 K, x1 = 0.8947 | 829.27
318.15 K, x1 = 0.9545 | 842.03
318.15 K, x1 = 1 | 852.26
328.15 K, x1 = 0.0481 | 695.05
328.15 K, x1 = 0.1134 | 701.93
328.15 K, x1 = 0.1627 | 707.35
328.15 K, x1 = 0.2102 | 712.81
328.15 K, x1 = 0.2589 | 718.53
328.15 K, x1 = 0.3111 | 725
328.15 K, x1 = 0.3588 | 731.17
328.15 K, x1 = 0.402 | 736.91
328.15 K, x1 = 0.4562 | 744.36
328.15 K, x1 = 0.5565 | 759.06
328.15 K, x1 = 0.5996 | 765.77
328.15 K, x1 = 0.6524 | 774.29
328.15 K, x1 = 0.7062 | 783.42
328.15 K, x1 = 0.7544 | 791.91
328.15 K, x1 = 0.806 | 801.44
328.15 K, x1 = 0.8433 | 808.67
328.15 K, x1 = 0.8917 | 818.28
328.15 K, x1 = 0.9532 | 831.23
328.15 K, x1 = 1 | 841.55
